# Results published in US20180237713A1, “Ionic Liquid, Lubricant, and Magnetic Recording Medium” (priority 2015, published 2018).
# Key:
# [1] = Thermal stability measurement (TG/DTA weight reduction temperature); details: for Weight reduction temperature 5% / Weight reduction temperature 10% / Weight reduction temperature 20%: TG/DTA, air 200 mL/min, 10° C./min, 30° C. to 600° C.
# [2] = Solubility test of ionic liquid in fluorine-based solvent VERTREL XF; details: for Solubility to fluorine-based solvent: VERTREL XF [CF3(CHF)2CF2CF3], 25° C., ultrasonic 5 minutes, left 1 day, visual; for Dissolved or not in fluorine-based solvent: VERTREL XF
# Protocol: A solubility test was performed on the ionic liquid synthesized each of Examples and each of Comparative Examples using VERTREL XF [CF3(CHF)2CF2CF3] available from Du Pont-Mitsui Fluorochemicals Company, Ltd. as a fluorine-based solvent.
# The ionic liquid was added to the predetermined mass of VERTREL XF.
# Specifically, 0.5 parts by mass or 0.1 parts by mass of each ionic liquid was added to 100 parts by mass of VERTREL XF (25° C.).
# Note that, a case where the mixture was visually observed to be transparent, the ionic liquid was judged as being dissolved. A case where the mixture was not transparent or insoluble matter was observed, the ionic liquid was judged as not being dissolved (insoluble).
# The ionic liquid was dissolved when 0.5 parts by mass of the ionic liquid was added.
# The ionic liquid was not dissolved when 0.5 parts by mass of the ionic liquid was added, but the ionic liquid was dissolved when 0.1 parts by mass of the ionic liquid was added.
# The ionic liquid was not dissolved both when 0.5 parts by mass of the ionic liquid was added and when 0.1 parts by mass of the ionic liquid was added.
# [3] = in acetonitrile; cited from earlier work
Compound,Weight reduction temperature 5% [1],Weight reduction temperature 10% [1],Weight reduction temperature 20% [1],Solubility to fluorine-based solvent [2],pKa of acid that is a source of the conjugate base [3],other results
"CCCCCCCCCCCCCCCCCC[n+]1ccn(CCCC)c1.O=S(=O)([N-]S(=O)(=O)C(F)(F)C(F)(F)C(F)(F)C(F)(F)F)C(F)(F)C(F)(F)C(F)(F)C(F)(F)F [Comp. Ex. 8A, bis(nonafluorobutanesulfonyl)imide-1-butyl-3-n-octadecylimidazolium, reference compound]",347.2 °C,367.0 °C,387.8 °C,less than 0.1% by mass,–,–
"CCCCCCCCCCCCCCCCCCn1cc[n+](CCCCCCCCC[n+]2ccn(CCCCCCCCCCCCCCCCCC)c2)c1.O=S(=O)([N-]S(=O)(=O)C(F)(F)C(F)(F)C(F)(F)C(F)(F)F)C(F)(F)C(F)(F)C(F)(F)C(F)(F)F.O=S(=O)([N-]S(=O)(=O)C(F)(F)C(F)(F)C(F)(F)C(F)(F)F)C(F)(F)C(F)(F)C(F)(F)C(F)(F)F [Comp. Ex. 10A, 1,9-bis[bis(nonafluorobutanesulfonyl)imide-1-octadecylimidazolium]nonane, reference compound]",355.1 °C,381.0 °C,400.9 °C,less than 0.1% by mass,–,–
"CCCCCCCCCCCCCCCCCC[N+]1=C2CCCCCN2CCC1.O=S(=O)([N-]S(=O)(=O)C(F)(F)C(F)(F)C(F)(F)C(F)(F)F)C(F)(F)C(F)(F)C(F)(F)C(F)(F)F [Ex. 2A, bis(nonafluorobutanesulfonyl)imide-8-octadecyl-1,8-diazabicyclo[5.4.0]-7-undecenium]",341.1 °C,372.9 °C,396.3 °C,0.5% by mass or greater,–,Thermal stability improved compared with perfluoropolyether Z-DOL or Z-TETRAOL by ([1]; difference to Z-DOL or Z-TETRAOL): ≥ 100 °C; Solubility to fluorine-based solvent ([2]; listed as Example 2A): ≥ 0.5 % by mass
"CCCCCCCCCCCCCCCCCC[N+]1(CCCC)CCCC1.O=S(=O)([N-]S(=O)(=O)C(F)(F)C(F)(F)C(F)(F)C(F)(F)F)C(F)(F)C(F)(F)C(F)(F)C(F)(F)F [Ex. 4A, bis(nonafluorobutanesulfonyl)imide-N-butyl-N-octadecylpyrrolidinium]",331.4 °C,360.2 °C,382.5 °C,0.5% by mass or greater,–,Dissolved or not in fluorine-based solvent [2]: could be dissolved; Solubility to fluorine-based solvent ([2]; listed as Example 4A): ≥ 0.5 % by mass
"CCCCCCCCCCCCCCCCCCN1CCCC1.O=S(=O)(NS(=O)(=O)C(F)(F)C(F)(F)C(F)(F)C(F)(F)F)C(F)(F)C(F)(F)C(F)(F)C(F)(F)F [Ex. 5A, bis(nonafluorobutanesulfonyl)imide-N-octadecylpyrrolidinium]",312.6 °C,334.4 °C,355.5 °C,0.5% by mass or greater,–,Dissolved or not in fluorine-based solvent [2]: could be dissolved; Solubility to fluorine-based solvent ([2]; listed as Example 5A): ≥ 0.5 % by mass
"C[n+]1ccn(CCC(F)(F)C(F)(F)C(F)(F)C(F)(F)C(F)(F)C(F)(F)C(F)(F)C(F)(F)F)c1.O=S(=O)([N-]S(=O)(=O)C(F)(F)C(F)(F)C(F)(F)C(F)(F)F)C(F)(F)C(F)(F)C(F)(F)C(F)(F)F [Ex. 9A, bis(nonafluorobutanesulfonyl)imide-1-1′H,1′H,2′H,2′H-heptadecafluorodecyl-3-methylimidazolium]",350.3 °C,365.5 °C,381.3 °C,0.5% by mass or greater,–,Solubility to fluorine-based solvent ([2]; listed as Example 9A): ≥ 0.5 % by mass
O=S(=O)(NS(=O)(=O)C(F)(F)C(F)(F)C(F)(F)C(F)(F)F)C(F)(F)C(F)(F)C(F)(F)C(F)(F)F [bis(nonafluorobutanesulfonyl)imide],–,–,–,–,0.0,–
O=S(=O)(O)C(F)(F)C(F)(F)C(F)(F)C(F)(F)C(F)(F)C(F)(F)C(F)(F)C(F)(F)F [heptadecafluorooctane sulfonic acid],–,–,–,–,0.7,–
"O=S1(=O)NS(=O)(=O)C(F)(F)C(F)(F)C1(F)F [hexafluorocyclopropane-1,3-bis(sulfonyl)imide]",–,–,–,–,−0.8,–
F[B-](F)(F)F.[H+] [tetrafluoroboric acid],–,–,–,–,1.8,–
O=S(=O)(C(S(=O)(=O)C(F)(F)F)S(=O)(=O)C(F)(F)F)C(F)(F)F [tris(trifluoromethanesulfonyl)methide],–,–,–,–,−3.7,–
"bis(nonafluorobutanesulfonyl)imide-6-octadecyl-1,8-diazabicyclo[5.4.0]-7-undecene [Ex. 1A]",352.9 °C,378.2 °C,396.7 °C,0.5% by mass or greater,–,Solubility to fluorine-based solvent ([2]; listed as Example 1A): ≥ 0.5 % by mass
